{"source": "patent US20250177412A1", "about": "“SMALL-MOLECULE INHIBITORS TARGETING THE BOB1/OCT1 INTERFACE” (NANTES UNIVERSITE, priority 2022, published 2025)", "key": {"[1]": {"system": "memory B cells", "experiment": "Immunoglobulin isotype production (LEGENDplex 8-plex)", "format": "cell-based, human", "details": "day 7", "method": "B cells were stimulated to differentiate into plasmablasts using a two-phase cell culture protocol as previously described. Briefly, B cells were seeded at 4×10^5 cells/mL in 24-well plates and activated during 4 days with 50 ng/mL recombinant human soluble CD40L (R&D Systems), 2.5 μg/mL CpG oligodeoxynucleotide (ODN) 2006 (Amidogen or Cayla Invivogen), 2 μg/mL F(ab′)2 fragment goat anti-human IgA+IgG+IgM (H+L) polyclonal Abs (anti-BCR) (Jackson ImmunoResearch Laboratories), and 50 U/mL human IL-2 (SARL Pharmaxie or Novartis). […] At days 0, 4 and 7, B cells were stained with viability marker LIVE/DEAD Fixable Aqua Dead Cell Stain (Thermofisher) to identify dead cells, followed by extracellular staining with anti-human mAbs: anti-CD20 FITC, anti-IgD BUV395, anti-CD27 BUV737, anti-CD38 BV605 (all from BD Biosciences) and analyzed by flow cytometry (FACSCelesta™, BD Biosciences). In some experiments, B cell apoptosis was evaluated by intracellular active caspase-3 staining (Caspase-3-PE, BD Biosciences).\nImmunoglobulin isotypes were quantified using the Human Immunoglobulin Isotyping LEGENDplex 8-plex kit (BioLegend) according to the manufacturer's instructions. Data were collected on the BD FACSCanto™ II flow cytometer and analyzed using LEGENDplex Data Analysis Software."}, "[2]": {"system": "memory B cells", "experiment": "High-throughput multiplex qPCR of B-cell-related genes", "format": "cell-based, human", "details": "10 μM", "method": "FIGS. 4A-AA are a combination of heatmap plot and graphs showing expression of B-cell-related genes at day 4 and day 7 of the human B cell differentiation in vitro model in the presence of 0 μM and 10 μM of the compound 005 (n=6). Experimental conditions are as described in the FIG. 3. […] FIG. 4B-AA show expression of the selected genes at day 4 related to proliferation (FIG. 4B-D), plasma-cell differentiation (FIG. 4E-I), immunoglobulin isotype switching (FIG. 4J-M), B-cell identity (FIG. 4N-S), and B-cell activation (FIG. 4T-AA)."}, "[3]": {"system": "B cells", "experiment": "B cell apoptosis by intracellular active caspase-3 staining", "format": "cell-based", "details": "for percentage of caspase-3 positive B cells: day 7, mean±SD", "method": "FIG. 5E-F show corresponding summarized data (n=8) for the frequency of caspase-3^+CD38^+/− non-plasmablasts (FIG. 5E) and caspase-3^+CD20^lowCD38^++ plasmablasts (FIG. 5F) at Day 7. […] Error bars are mean±SD. P values were determined with one-way ANOVA with Geisser-Greenhouse's multiple comparisons test.\nB cells were stimulated to differentiate into plasmablasts using a two-phase cell culture protocol as previously described. Briefly, B cells were seeded at 4×10^5 cells/mL in 24-well plates and activated during 4 days with 50 ng/mL recombinant human soluble CD40L (R&D Systems), 2.5 μg/mL CpG oligodeoxynucleotide (ODN) 2006 (Amidogen or Cayla Invivogen), 2 μg/mL F(ab′)2 fragment goat anti-human IgA+IgG+IgM (H+L) polyclonal Abs (anti-BCR) (Jackson ImmunoResearch Laboratories), and 50 U/mL human IL-2 (SARL Pharmaxie or Novartis). Day 4-activated B cells were washed and cultured at the same concentration for three additional days in a fresh medium containing 50 U/mL human IL-2, 10 ng/mL human IL-4 (R&D Systems), and 10 ng/mL human IL-10 (R&D Systems) to induce B cell differentiation into plasmablasts. At days 0, 4 and 7, B cells were stained with viability marker LIVE/DEAD Fixable Aqua Dead Cell Stain (Thermofisher) to identify dead cells, followed by extracellular staining with anti-human mAbs: anti-CD20 FITC, anti-IgD BUV395, anti-CD27 BUV737, anti-CD38 BV605 (all from BD Biosciences) and analyzed by flow cytometry (FACSCelesta™, BD Biosciences). In some experiments, B cell apoptosis was evaluated by intracellular active caspase-3 staining (Caspase-3-PE, BD Biosciences)."}, "[4]": {"system": "B cells", "experiment": "GZMB+ B cell expansion", "format": "cell-based, human", "details": "10 μM added daily, day 3", "method": "B cells were kept unstimulated (B resting) or stimulated (B expanded) for 24 hours with the expansion mixture containing F(ab′)2 anti-BCR, CpG ODN, CD40L, IL-2, and IL-21. FIG. 6A-B show the expression level of granzyme B measured as frequency (FIG. 6A) and by the MFI (FIG. 6B) in DMSO-treated (compound 005-) and 10 μM compound 005-treated resting (open circles) and expanded for 3 days (closed circles) B cells. […] Representative offset histogram overlays showing median fluorescence intensity of staining of gated live […] with cell proliferation dye (CPD) (FIGS. 6C, 6E and 6F). […]\nPrimary total human B cells (1×10^6 cells/mL) were prestimulated for ˜24 h with the cocktail containing 10 ng/mL of IL-21 (Miltenyi Biotec), 5 μg/mL of F(ab′)2 anti-BCR Abs (Jackson ImmunoResearch Laboratories Inc.), 50 ng/ml of CD40L (R&D systems), 1 μg/mL of CpG oligonucleotides (ODN 2006, Invivogen), and 50 U/mL of IL-2 (Novartis) as previously described, in the presence of vehicle (DMSO) or 10 μM compound 005. […] The capacity of B cells to suppress effector T cell proliferation was assessed as previously described. […] T cell proliferation was evaluated as the percentage of CPD-low T cells on day 3. […]"}}}
{"smiles": "Cc1ccc(NC(=O)C2CN(c3nc(NCCCc4ccc(F)cc4)nc(NCCC(=O)O)n3)c3ccccc3O2)cc1Cl", "note": "(stereo not shown) [compound 005, 3-((4-(2-((3-chloro-4-methylphenyl)carbamoyl)-2,3-dihydro-4H-benzo[b][1,4]oxazin-4-yl)-6-((3-(4-fluorophenyl)propyl)amino)-1,3,5-triazin-2-yl)amino)propanoic acid]", "values": [{"measurement": "IgG1, IgG2, IgG3 and IgG4 production", "setting": "[1]; 10 μM", "value": "significant decrease"}, {"measurement": "titers of all immunoglobulin subclasses", "setting": "[1]; 15 and 20 μM", "value": "strongly suppressed"}, {"measurement": "expression of genes related to the B cell identity and activation", "setting": "[2]", "value": "upregulated"}, {"measurement": "expression of plasma cell related genes", "setting": "[2]", "value": "suppressed"}, {"measurement": "percentage of caspase-3 positive B cells", "setting": "[3]; 5 μM", "value": "33.9±15.5", "unit": "%"}, {"measurement": "percentage of caspase-3 positive B cells", "setting": "[3]; 10 μM", "value": "25.6±7.5", "unit": "%"}, {"measurement": "percentage of caspase-3 positive B cells", "setting": "[3]; 15 μM", "value": "30.8±7.9", "unit": "%"}, {"measurement": "frequencies of caspase-3 positive cells", "setting": "[3]; activation phase (days 0-4), even at high concentrations", "value": "did not affect"}, {"measurement": "susceptibility to apoptosis of CD20loCD38hi plasmablast and CD20+CD38+/- non-plasmablast populations", "setting": "[3]; day 7", "value": "reduced susceptibility to apoptosis"}, {"measurement": "GZMB expression", "setting": "[4]", "value": "did not affect"}]}
